Source: patent US20230203003A1, “Notch Inhibitors and Uses Thereof” (StemSynergy Therapeutics, Inc., priority 2020, published 2023)
Structures can show the parent of a compound that is named as a salt. Where two headings read alike, the source gives them in different places.

Molecular target: T1, hNotch1ICD (Homo sapiens, UniProt P46531)
T1 construct: pLV[Tet]-Puro-TRE3G>Notch1-ICD; expressed in transfected cells; host or cells: 293A cells
Assay: Notch1 Reporter Assay (Dox-inducible Notch1-ICD, CSL-responsive luciferase in 293A cells)
Format: cell-based
Conditions: read-out: Notch1 Reporter Assay IC50
Protocol: 293A cells expressing 1) pCMV-Tet-On 3G, 2) pLV[Tet]-Puro-TRE3G>Notch1-ICD, 3) pLV[Tet]-Puro-TRE3G>Notch2-ICD, 4) pLV[Tet]-Puro-TRE3G>Notch3-ICD, and 5) pCSL-RElement-Luc were used. When Doxycycline is added, the Tet-ON gene activates expression of hNotch1ICD, which together with endogenous NTC components binds to CSL responsive elements (pCSL-RElement-Luc) and expresses luciferase. 1 ×× 10^4 cells are plated in 100 µL (96-well format). 24 h later, compounds (10 mM stock in DMSO) are diluted in DMSO to 200X, then added (5 ul into 1 mL) to cell culture media containing 50 ng/mL Dox. This is then added 1:1 to cells. Final DMSO = 0.25%, Dox = 25 ng/mL. After 24 h, media is discarded, and cells are lysed in passive lysis buffer (Promega). Cells are rocked at room temperature for 15 min and then lysate is divided for luciferase assay (Luciferase Assay System, Promega) and cell viability (CellTiter Glo 2.0, Promega). Raw luciferase is normalized to cell viability, and then scaled to DMSO wells. Results are analyzed and IC50′s are determined in GraphPad by nonlinear regression curve fitting (4 parameter) of dose response curves.

[1] = 293A cells, 24 h, luciferase normalized to cell viability
[2] = value printed in the synthesis heading of the compound

T1 sequence (P46531 1754-2555 limits assumed): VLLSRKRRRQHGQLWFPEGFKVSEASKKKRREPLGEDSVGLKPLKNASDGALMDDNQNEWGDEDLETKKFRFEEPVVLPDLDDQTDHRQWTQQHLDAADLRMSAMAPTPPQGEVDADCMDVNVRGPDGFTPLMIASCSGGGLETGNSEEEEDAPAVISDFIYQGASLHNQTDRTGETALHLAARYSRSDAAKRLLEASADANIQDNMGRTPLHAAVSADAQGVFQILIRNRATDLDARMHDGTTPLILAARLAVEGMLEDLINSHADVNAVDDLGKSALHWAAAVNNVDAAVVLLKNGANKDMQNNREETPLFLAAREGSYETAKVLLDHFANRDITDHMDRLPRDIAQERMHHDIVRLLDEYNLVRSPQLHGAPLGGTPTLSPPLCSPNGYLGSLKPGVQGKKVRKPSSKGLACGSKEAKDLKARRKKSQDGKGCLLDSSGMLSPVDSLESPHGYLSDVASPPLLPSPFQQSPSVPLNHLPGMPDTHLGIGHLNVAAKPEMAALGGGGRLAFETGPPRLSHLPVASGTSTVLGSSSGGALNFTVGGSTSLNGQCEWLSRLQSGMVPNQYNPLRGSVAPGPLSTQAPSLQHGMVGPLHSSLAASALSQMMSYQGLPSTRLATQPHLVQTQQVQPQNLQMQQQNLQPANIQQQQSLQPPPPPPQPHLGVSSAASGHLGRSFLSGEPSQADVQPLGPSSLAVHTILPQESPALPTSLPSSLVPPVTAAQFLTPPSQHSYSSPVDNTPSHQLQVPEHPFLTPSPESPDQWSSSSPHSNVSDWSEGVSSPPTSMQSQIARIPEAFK

IC50 [2] | Structure (SMILES) | IC50 [1]
 | CC(C)Cn1c(=O)c(C(=O)Nc2ccc(F)cc2)c(O)c2ccccc21 [compound 539, N-(4-fluorophenyl)-4-hydroxy-1-isobutyl-2-oxo-1,2-dihydroquinoline-3-carboxamide] | 6.6 µM
 | CC(C)Cn1c(=O)c(C(=O)Nc2cc(N3CCOCC3)ccn2)c(O)c2ccccc21 [compound 527, 4-hydroxy-1-isobutyl-N-(4-morpholinopyridin-2-yl)-2-oxo-1,2-dihydroquinoline-3-carboxamide] | 8.5 µM
 | CC(C)Cn1c(=O)c(C(=O)Nc2cccc(F)c2N2CCN(C)CC2)c(O)c2ccccc21 [581(02)] | 7.7 µM
5.6 µM | CC(C)Cn1c(=O)c(C(=O)Nc2ccc(F)cc2N2CCN(C)CC2)c(O)c2ccccc21 [SSTN-570_HCl salt, N-(4-fluoro-2-(4-methylpiperazin-1-yl)phenyl)-4-hydroxy-1-isobutyl-2-oxo-1,2-dihydroquinoline-3-carboxamide hydrochloride salt] | 
 | CC(C)Cn1c(=O)c(C(=O)Nc2ncco2)c(O)c2ccccc21 [compound 528, 4-hydroxy-1-isobutyl-N-(oxazol-2-yl)-2-oxo-1,2-dihydroquinoline-3-carboxamide] | 14.3 µM
6.44 µM | CC(C)Cn1c(=O)c(C(=O)Nc2cccc(F)c2)c(O)c2cc(N3CCN(C)CC3)ccc21 [SSTN-577_HCl salt, N-(3-fluorophenyl)-4-hydroxy-1-isobutyl-6-(4-methylpiperazin-1-yl)-2-oxo-1,2-dihydroquinoline-3-carboxamide hydrochloride salt] | 
 | CC(C)Cn1c(=O)c(C(=O)Nc2ncccc2O)c(O)c2ccccc21 [compound 519, 4-hydroxy-N-(3-hydroxypyridin-2-yl)-1-isobutyl-2-oxo-1,2-dihydroquinoline-3-carboxamide] | 17.8 µM
6.83 µM | CC(C)Cn1c(=O)c(C(=O)Nc2ccccc2N2CCN(C)CC2)c(O)c2ccccc21 [SSTN-568_HCl salt, 4-hydroxy-1-isobutyl-N-(2-(4-methylpiperazin-1-yl)phenyl)-2-oxo-1,2-dihydroquinoline-3-carboxamide hydrochloride salt] | 
9.8 µM | CC(C)Cn1c(=O)c(C(=O)Nc2cccc(F)c2)c(O)c2c(N3CCN(C)CC3)cccc21 [SSTN-588_HCl salt, N-(3-fluorophenyl)-4-hydroxy-1-isobutyl-5-(4-methylpiperazin-1-yl)-2-oxo-1,2-dihydroquinoline-3-carboxamide hydrochloride salt] | 
 | CC(C)Cn1c(=O)c(C(=O)Nc2cc(F)cc(N3CCN(C)CC3)c2)c(O)c2ccccc21 [583(02)] | 6.3 µM
 | CC(C)Cn1c(=O)c(C(=O)Nc2ccccc2F)c(O)c2ccccc21 [compound 537, N-(2-fluorophenyl)-4-hydroxy-1-isobutyl-2-oxo-1,2-dihydroquinoline-3-carboxamide] | 5.1 µM
 | O=C(Nc1ccccc1)c1c(O)c2c(n(Cc3ccco3)c1=O)CCCC2 [SSTN-379] | 27.5 µM
7.76 µM | CC(C)Cn1c(=O)c(C(=O)Nc2cccc(F)c2N2CCN(C)CC2)c(O)c2ccccc21 [SSTN-581_Formate salt, N-(3-fluoro-2-(4-methylpiperazin-1-yl)phenyl)-4-hydroxy-1-isobutyl-2-oxo-1,2-dihydroquinoline-3-carboxamide formate salt] | 
 | CCCn1c2c(c(O)c(C(=O)Nc3ccccn3)c1=O)CCCC2 [SSTN-401] | 21.6 µM
8.13 µM | CC(C)Cn1c(=O)c(C(=O)Nc2cc(F)cc(N3CCN(C)CC3)c2)c(O)c2ccccc21 [SSTN-583, N-(3-fluoro-5-(4-methylpiperazin-1-yl)phenyl)-4-hydroxy-1-isobutyl-2-oxo-1,2-dihydroquinoline-3-carboxamide] | 
 | Cc1ccncc1NC(=O)c1c(O)c2ccccc2n(CC(C)C)c1=O [compound 550, 4-hydroxy-1-isobutyl-N-(4-methylpyridin-3-yl)-2-oxo-1,2-dihydroquinoline-3-carboxamide] | 20.8 µM
 | CC(C)Cn1c(=O)c(C(=O)Nc2cccc(F)c2)c(O)c2cc(N3CCN(C)CC3)ccc21 [577(01)] | 9.7 µM
 | CC(C)Cn1c(=O)c(C(=O)Nc2cc(Cl)ccn2)c(O)c2ccccc21 [compound 526, N-(4-chloropyridin-2-yl)-4-hydroxy-1-isobutyl-2-oxo-1,2-dihydroquinoline-3-carboxamide] | 20.3 µM
6.33 µM | CC(C)Cn1c(=O)c(C(=O)Nc2cc(F)cc(N3CCN(C)CC3)c2)c(O)c2ccccc21 [SSTN-583_HCl salt, N-(3-fluoro-5-(4-methylpiperazin-1-yl)phenyl)-4-hydroxy-1-isobutyl-2-oxo-1,2-dihydroquinoline-3-carboxamide hydrochloride salt] | 
 | CC(C)Cn1c(=O)c(C(=O)Nc2cccc(F)c2N2CCN(C)CC2)c(O)c2ccccc21 [581(01)] | 7.8 µM
 | Cc1ccccc1NC(=O)c1c(O)c2ccccc2n(CC(C)C)c1=O [compound 535, 4-hydroxy-1-isobutyl-2-oxo-N-(o-tolyl)-1,2-dihydroquinoline-3-carboxamide] | 5.9 µM
4.93 µM | CC(C)Cn1c(=O)c(C(=O)Nc2ccc(N3CCN(C)CC3)cc2)c(O)c2ccccc21 [SSTN-569_HCl salt, 4-hydroxy-1-isobutyl-N-(4-(4-methylpiperazin-1-yl)phenyl)-2-oxo-1,2-dihydroquinoline-3-carboxamide hydrochloride salt] | 
 | O=C(Nc1ccc(F)cc1)c1c(O)c2cccnc2n(-c2ccccc2)c1=O [SSTN-443] | 9 µM
7.87 µM | CC(C)Cn1c(=O)c(C(=O)Nc2cc(F)ccc2N2CCN(C)CC2)c(O)c2ccccc21 [SSTN-571_HCl salt, N-(5-fluoro-2-(4-methylpiperazin-1-yl)phenyl)-4-hydroxy-1-isobutyl-2-oxo-1,2-dihydroquinoline-3-carboxamide hydrochloride salt] | 
 | CC(C)Cn1c(=O)c(C(=O)NCc2ccco2)c(O)c2ccccc21 [compound 541, N-(furan-2-ylmethyl)-4-hydroxy-1-isobutyl-2-oxo-1,2-dihydroquinoline-3-carboxamide] | 15.1 µM
13.3 µM | Cc1cccnc1NC(=O)c1c(O)c2ccc(N3CCN(C)CC3)cc2n(CC(C)C)c1=O [SSTN-580_TFA salt, 4-hydroxy-1-isobutyl-7-(4-methylpiperazin-1-yl)-N-(3-methylpyridin-2-yl)-2-oxo-1,2-dihydroquinoline-3-carboxamide TFA salt] | 
 | CC(C)Cn1c(=O)c(C(=O)Nc2cccc(N3CCOCC3)c2)c(O)c2ccccc21 [compound 554, 4-hydroxy-1-isobutyl-N-(3-morpholinophenyl)-2-oxo-1,2-dihydroquinoline-3-carboxamide] | 4.3 µM
14 µM | Cc1cccnc1NC(=O)c1c(O)c2ccc(N3CCN(C)CC3)cc2n(CC(C)C)c1=O [SSTN-580_HCl salt, 4-hydroxy-1-isobutyl-7-(4-methylpiperazin-1-yl)-N-(3-methylpyridin-2-yl)-2-oxo-1,2-dihydroquinoline-3-carboxamide hydrochloride salt] | 
 | Cc1cccnc1NC(=O)c1c(O)c2ccccc2n(CC(C)C)c1=O [compound 513, 4-hydroxy-1-isobutyl-N-(3-methylpyridin-2-yl)-2-oxo-1,2-dihydroquinoline-3-carboxamide] | 11.1 µM
 | Cc1ccnc(NC(=O)c2c(O)c3ccccc3n(Cc3ccccc3)c2=O)c1 [SSTN-410] | 21.9 µM
